Data set [1] addresses T1, full-length human dCTPase protein (Homo sapiens, UniProt Q9H773).
T1 sequence (Q9H773 1-170): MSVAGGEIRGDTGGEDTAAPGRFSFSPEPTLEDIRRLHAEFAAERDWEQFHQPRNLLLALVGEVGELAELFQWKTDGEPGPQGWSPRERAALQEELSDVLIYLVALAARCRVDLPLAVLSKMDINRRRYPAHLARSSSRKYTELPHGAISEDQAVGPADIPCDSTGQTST
Description: HTS-adapted Malachite Green assay of dCTPase inhibition. The note with it: for decrease in potency: compared with compound 6. The class given is biochemical.

For another data set, the target named is T2, intracellular dCTPase (Homo sapiens, UniProt Q9H773).
T2 sequence (Q9H773 1-170): T1 sequence (Q9H773 1-170)
Description: cellular thermal shift assay in HL60 cells. The data set is classed as cell-based. The note with it: 2 h incubation, heated at 67 °C.

The target in the next data set is T3, purified dCTPase enzyme (Homo sapiens, UniProt Q9H773).
T3 sequence (Q9H773 1-170): T1 sequence (Q9H773 1-170)
Description: differential scanning fluorimetry assay. The class given is binding. On the technique in general: In DSF a fluorescence change marks the thermal transition of the protein.

A short description of data set [2]: human liver microsome stability. The note with it: human liver microsomes. Background: Microsomes from liver hold many membrane-bound enzymes, among them those of drug oxidation.
Data set [3] can be described thus: mouse liver microsome stability. To be noted: mouse liver microsomes.
A further data set deals with DNA. Nature of the data set: DNA intercalation.
The test system of a further data set is NTPases/NUDIX hydrolases. Description: selectivity panel of related NTPases/NUDIX hydrolases. The data set is classed as biochemical.
Data set [4] relates to base excision repair enzymes. Nature of the data set: selectivity against base excision repair enzymes. The class given is biochemical.
For a further data set, the system named is kinases. Nature of the data set: selectivity against kinases. The class given is biochemical.
A short description of data set [5]: stability of a solution at room temperature under normal light. The data set is classed as physicochemical. To be noted: normal light conditions, five months.
In another data set the test system is HL60 cells. Nature of the data set: combination with cytidine analogues, cell death by flow cytometry. The class given is cell-based. To be noted: 72 h, compound 18 2.5 μM, increasing concentrations of cytidine analogues.
Data set [6] in a line: glutathione conjugation with metabolic activation in HLM. To be noted: in the presence of metabolic activation system (in HLM). The data set is classed as in vitro ADME, human.
Data set [7] has as its system p-Chk1, γ-H2AX, 53BP1, cleaved caspase 3. Nature of the data set: DNA replication stress and apoptosis markers. To be noted: at the concentrations and time points tested. The class given is cell-based.
In the next data set the target is T4, dCTPase (Homo sapiens, UniProt Q9H773).
T4 sequence (Q9H773 1-170): T1 sequence (Q9H773 1-170)
Nature of the data set: jump dilution assay. The data set is classed as biochemical. The note with it: 10% of the IC50 concentration.

A further data set is described as follows: plasma protein binding. The class given is in vitro ADME.

The structures appear in SMILES notation.

With `COc1ccc(Cn2cnc3ccccc32)cc1` [Compound 7, 1-(4-Methoxybenzyl)-1H-benzo[d]imidazole], the “inhibition of dCTPase (in words)” value in data set [1] was “no inhibiton of dCTPase”.

With `COc1ccc(Cn2cnc3cc(C)c(C)cc32)cc1` [Compound 8, 1-(4-Methoxybenzyl)-5,6-dimethyl-1H-benzo[d]imidazole], in data set [1], the “inhibition of dCTPase (in words)” value was “no inhibiton of dCTPase”.

As for `COc1ccc(Cn2c(C)nc3ccccc32)cc1` [Compound 9, 1-(4-Methoxybenzyl)-2-methyl-1H-benzo[d]imidazole], the “inhibition of dCTPase (in words)” value in [1] is “no inhibition of dCTPase”.

As for `COc1ccc(Cn2c(C)nc3cc(C)c(C)cc32)cc1` [Compound 10, 1-(4-Methoxybenzyl)-2,5,6-trimethyl-1H-benzo[d]imidazole], the decrease in potency in data set [1] turned out to be 400 fold.

For the compound `COc1ccc(Cn2c(C)nc3c([N+](=O)[O-])cccc32)cc1` [Compound 12, 1-(4-Methoxybenzyl)-2-methyl-4-nitro-1H-benzo[d]imidazole], the decrease in potency entry in [1] is recorded as “approximately 25 fold”.

As to `COc1ccc(Cn2c(C)nc3c([N+](=O)[O-])c(Cl)c(Cl)cc32)cc1` [Compound 14, 5,6-Dichloro-1-(4-methoxybenzyl)-2-methyl-4-nitro-1H-benzo-[d]imidazole], the “intracellular dCTPase stabilization / target engagement” value at intracellular dCTPase is “did not stabilize dCTPase”. For the same compound, at purified dCTPase enzyme, the “stabilization of the purified dCTPase enzyme” value is on record as “concentration-dependent stabilization”. Also, the “E HLM (extraction ratio)” value in [2] is reported as 0.59. For the same compound, the “E MLM (extraction ratio)” value in [3] is 0.88. Further, the DNA intercalation result in the data set on DNA is recorded as “did not intercalate DNA”. For the same compound, in the data set on NTPases/NUDIX hydrolases, the “selectivity across related NTPases/NUDIX hydrolases” value is listed as “excellent selectivity”. The “selectivity over base excision repair enzymes” value in [4] is listed as “excellent selectivity”. Also, in the data set with kinases, the selectivity over kinases result is listed as “excellent selectivity”.

Turning to `Cc1nc2c([N+](=O)[O-])c(Cl)c(Cl)cc2n1Cc1ccc(B(O)O)cc1` [Compound 18, (4-((5,6-Dichloro-2-methyl-4-nitro-1H-benzo[d]imidazol-1-yl)-methyl)phenyl)boronic Acid], at intracellular dCTPase, the “intracellular dCTPase stabilization / target engagement” value was “strong intracellular target engagement”. In data set [5], the “degradation of a solution” value is on record as “no signs of degradation”. For the same compound, the “stabilization of the purified dCTPase enzyme” value at purified dCTPase enzyme is recorded as “concentration-dependent stabilization”. For the same compound, in data set [2], the “E HLM (extraction ratio)” value came out at 0.38. The “cell death in combination with cytidine analogues” value in the data set on HL60 cells is given as “concentration-dependent increase in cell death”. Besides, the “conjugation with glutathione (GSH)” value in [6] is listed as “did not conjugate”. The “E MLM (extraction ratio)” value in [3] worked out at 0.24. The DNA intercalation result in the data set on DNA is on record as “did not intercalate DNA”. Further, the “selectivity across related NTPases/NUDIX hydrolases” value in the data set with NTPases/NUDIX hydrolases is given as “excellent selectivity”. In data set [7], the “DNA replication stress (p-Chk1, γ-H2AX, 53BP1) and cleaved caspase 3” value is reported as “did not increase DNA replication stress”. For the same compound, the “selectivity over base excision repair enzymes” value in data set [4] is “excellent selectivity”. Moreover, the “reversibility of dCTPase inhibition” value on dCTPase was “reversible off-rate”. In addition, the selectivity over kinases result with kinases is given as “excellent selectivity”.

In the case of `Cc1n[nH]c(C)c1CCn1c(C)nc2c([N+](=O)[O-])c(Cl)c(Cl)cc21` [Compound 25, 5,6-Dichloro-1-(2-(3,5-dimethyl-1H-pyrazol-4-yl)ethyl)-2-methyl-4-nitro-1H-benzo[d]imidazole], the “E HLM (extraction ratio)” value in data set [2] worked out at 0.83. Also, the “E MLM (extraction ratio)” value in data set [3] came out at 0.89.

In the case of `Cc1nc2c([N+](=O)[O-])c(Cl)c(Cl)cc2n1Cc1ccc(-n2cccn2)cc1` [Compound 27, 1-(4-(1H-Pyrazol-1-yl)benzyl)-5,6-dichloro-2-methyl-4-nitro-1H-benzo[d]imidazole], the “E HLM (extraction ratio)” value in data set [2] was found to be 0.61. In addition, the “E MLM (extraction ratio)” value in [3] is reported as 0.73.

With `Cc1nc2c([N+](=O)[O-])c(Cl)c(Cl)cc2n1Cc1ccc(B2OC(=O)CN(C)CC(=O)O2)cc1` [Compound 30, 2-(4-((5,6-Dichloro-2-methyl-4-nitro-1H-benzo[d]-imidazol-1-yl)methyl)phenyl)-6-methyl-1,3,6,2-dioxazaborocane-4,8-dione], the fraction unbound (in general, the share of the substance not bound to proteins or other matrix) in the data set “plasma protein binding” is 0.008. Besides, the “conjugation with glutathione (GSH)” value in data set [6] is reported as “did not conjugate”. Besides, the “E MLM (extraction ratio)” value in data set [3] is reported as 0.36.

For the compound `O=[N+]([O-])c1c(Cl)c(Cl)cc2c1nc(C1CC1)n2Cc1ccc(B(O)O)cc1` [Compound 36, (4-((5,6-Dichloro-2-cyclopropyl-4-nitro-1H-benzo[d]imidazol-1-yl)methyl)phenyl)boronic Acid], in data set [2], the “E HLM (extraction ratio)” value amounted to 0.14. Moreover, in data set [3], the “E MLM (extraction ratio)” value amounted to 0.83. The “reversibility of dCTPase inhibition” value at dCTPase was “reversible off-rate”.

For `Cc1nc2cc(Cl)c(Cl)cc2n1Cc1ccc(B(O)O)cc1` [Compound 38, (4-((5,6-Dichloro-2-methyl-1H-benzo[d]imidazol-1-yl)methyl)-phenyl)boronic Acid], the “inhibition of dCTPase (in words)” value in data set [1] is “submicromolar activity”.

As for `Cc1nc2c([N+](=O)[O-])c(F)c(F)cc2n1Cc1ccc(B(O)O)cc1` [Compound 39, (4-((5,6-Difluoro-2-methyl-4-nitro-1H-benzo[d]imidazol-1-yl)-methyl)phenyl)boronic Acid], the “inhibition of dCTPase (in words)” value in data set [1] is listed as “submicromolar activity”.

Source of the values: paper PMC4753678 (Journal of medicinal chemistry, 2016).
